These results are taken from article PMC11997985, “Synthesis and In Vitro Profiling of Psilocin Derivatives: Improved Stability and Synthetic Properties” (Journal of Medicinal Chemistry, 2025).

Several values for one entry are separate records, joined by “and”; a condition that tells them apart may be missing. Equal values may be shown once. Marks after values point to notes of the source that are not given here.

A short description of data set [1]: Co-factor experiment: microsome suspension with and without NADPH. It counts as in vitro ADME, human. To be noted: for Co-factor experiment: degradation with and without addition of NADPH compared. Here is the method: Therefore, additional experiments comparing stability with and without the addition of NADPH cofactor and a very short incubation period were performed (Tables S4 and S5). […] Due to the rapid observed degradation in microsomes, we decided to investigate the stability of five compounds in human plasma, aiming for a broad range of stabilities (Table 2, Table S6). It should be noted that esterase-labile compounds are notoriously difficult to study in microsomal stability studies.[36]
Table S3 Evaluation of metabolic stability in human microsomes
No. Metabolic stability Comment
4k <10/<10 Low retention in chromatography
8 <10/<10 Low retention in chromatography.
Table S4 Results from the modified microsome assay where degradation with and without the addition of NADPH was compared […]
4d Very low peak area for the first time point,
4e Very low peak area for the first time point,
4f Very low peak area for the first time point,
5 Very low peak area for the first time point,
8 No degradation without co -factor […]
metabolism by the microsomes (consisting mainly of cytochrome P450 enzymes) or if it was due to other factors, the compounds (with the exception of 4k) were incubated in the microsome suspension both with and without the addition of NADPH. Samples […]
(§1) were taken at three timepoints, and the degradation was compared to determine if it was dependent on NADPH. Compound 4k […]
(§2) without the addition of NADPH. […]
(§3) microsomes that need to be activated by a co -factor.
(§4) Table S5 Percent of peak area found in microsome suspension 15 seconds after the addition of NADPH in comparison with the same amount dissolved in H2O/EtOH
(§5) No. Area at 0.25 min. in Area in solution % found in microsomes/NADPH (125 nM) microsome
(§6) Comparison with compounds in solution. A comparison was made between the peak area of the compounds in solution with that obtained in the microsome suspension directly after the addition of NADPH (about 0.25 minutes) (Table S5). Before the addition of NADPH, the compounds are equilibrated in the microsome suspension for approximately five minutes. All compounds were prepared in solution by diluting a portion of the DMSO solutions with H2O/EtOH (75:25) to 125 nM (the final concentration of compounds for analysis in the microsome assay).
(§7) For the compounds where no results from the microsome assay could be reported due to low peak area (4d, 4e, 4f & 5), less than one percent of the expected peak area as compared with the area in solution was detected. […]
(§8) degrade rapidly before the addition of the co-factor after five minutes in incubation. For compounds 4g, 4h, 4i & 4j, which were […]
(§9) higher relative peak areas were found. […]
(§10) without NADPH was only found at 15% of the area seen in solution in the microsome suspension.

A short description of data set [2]: Stability in simulated stomach acid (0.10 M HCl). To be noted: 0.10 M HCl (simulated stomach acid).
Data set [3] in a line: Chemical stability in 1.0 M NaHCO3 and 1.0 M HCl.
Another data set concerns porcine liver esterase. Put plainly: Stability in FaSSIF supplemented with esterase. To be noted: for % prodrug remaining, measured after 1 min: after 1 min at 20 IU/mL; for predicted half-life: at 270 IU/mL; for predicted abs.: calculated remaining prodrug available for GI absorption, predicted level after 5 min at 270 IU/mL (% remaining prodrug); for half-life at 0.292 mM: pig, FaSSIF supplemented with porcine liver esterase (20 IU/mL).

Data set [4] can be described thus: Metabolic stability in human microsomes. In kind it is in vitro ADME. To be noted: for Metabolic stability in human microsomes: 37 °C, 0.5 mg/mL protein, 1 μM compound, 1 mM NADPH; for Comment on microsome assay: Table S3.
Data set [5] is described as follows: Peak area in microsome suspension compared with compounds in solution. To be noted: peak area 15 seconds after addition of NADPH versus same amount (125 nM) in H2O/EtOH. In kind it is in vitro ADME, human. Here is the method: as §1, §2, §3, §4, §5, §6, §7, §8, §9, §10

For the molecule `COC(=O)Oc1cccc2[nH]cc(CCN(C)C)c12.O=C(O)/C=C/C(=O)O` [Compound 4e], in data set [1], the Co-factor experiment entry is on record as “Very low peak area for the first time point, instability suspected”. The molecule further had a half-life at 5 mM in data set [2] greater than 167 h. The same molecule came in with a half-life at 24 h, 5 mM in data set [3] (1.0 M HCl) of 150 h. The same molecule gave a half-life at 24 h, 5 mM in data set [3] (1.0 M NaHCO3) of 16.7 h. In addition, in the data set on porcine liver esterase, the “% prodrug remaining, measured after 1 min” value is recorded as 60%; the predicted half-life was 6 s; the predicted abs. is reported as 4.1 × 10^–13; the half-life at 0.292 mM was 84.6 ± 19.2 s. In addition, the “% prodrug remaining, no esterase 30 min” value in the data set with porcine liver esterase (after 30 min with no esterase) is 100%. Moreover, in data set [4], the “Metabolic stability in human microsomes” value is >200^a μL/min/mg protein and >200 μL/min/mg protein; the “Comment on microsome assay” value is reported as “Rapid degradation”.

On to `CN(C)CCc1c[nH]c2cccc(OC(=O)OCc3ccccc3)c12.O=C(O)/C=C/C(=O)O.O=CO` [Compound 4f], for which, in data set [1], the Co-factor experiment entry is listed as “Very low peak area for the first time point, instability suspected”. The half-life at 5 mM in data set [2] is greater than 167 h. In data set [3] (1.0 M HCl), this molecule came in with a half-life at 24 h, 5 mM of 100 h. The molecule also yielded a half-life at 24 h, 5 mM in data set [3] (1.0 M NaHCO3) of 11.7 h. In the data set with porcine liver esterase, the “% prodrug remaining, measured after 1 min” value is on record as 21%; the predicted half-life is 1.8 s; the predicted abs. was 6.6 × 10^–45; the half-life at 0.292 mM was determined as 26.4 ± 2.4 s. Also, in data set [4], the “Metabolic stability in human microsomes” value is >200^a μL/min/mg protein and >200 μL/min/mg protein; the “Comment on microsome assay” value is “Rapid degradation”.

Consider `CCCCCCCCCCC(=O)Oc1cccc2[nH]cc(CCN(C)C)c12.O=C(O)/C=C/C(=O)O` [Compound 4j], for which the “% found in microsome suspension” value in data set [5] is 45%. For the same molecule, in data set [1], the Co-factor experiment result is listed as “Degradation without co-factor”. Besides, in data set [1] (human, human microsome suspension, both with and without the addition of NADPH, read-out: intrinsic clearance), the microsomal CLint is greater than 200 µL/min/mg. This molecule came in with a half-life at 5 mM in data set [2] greater than 167 h. In data set [3] (1.0 M HCl), the half-life at 24 h, 5 mM is 21.7 h. For the same molecule, the half-life at 24 h, 5 mM in data set [3] (1.0 M NaHCO3) was 16.7 h. Moreover, in data set [4], the “Metabolic stability in human microsomes” value is >200^a μL/min/mg protein and >200 μL/min/mg protein; the “Comment on microsome assay” value was “Rapid degradation”.

Take `CN(C)CCc1c[nH]c2cccc(OB(O)O)c12.O=C(O)/C=C/C(=O)O` [Compound 5]: the Co-factor experiment entry in data set [1] is reported as “Very low peak area for the first time point, instability suspected”. In addition, the figures for the half-life at 5 mM in data set [2], in data set [3] (1.0 M HCl) and in data set [3] (1.0 M NaHCO3) were less than 0.0833 h, less than 5 min and less than 5 min, respectively. Also, the “Metabolic stability in human microsomes” value in data set [4] is >200^a μL/min/mg protein and >200 μL/min/mg protein. For the same molecule, in data set [4], the “Comment on microsome assay” value is reported as “Rapid degradation”.
